In patent US20250197425A1, “2,6,9-TRISUBSTITUTED PURINES” (ASTRAZENECA AB, priority 2022, published 2025):
In brackets after ≈: the same amount, converted by molar mass.

Tests used:
CDK2:CCNE1 = CDK2:CCNE1 (Homo sapiens (Human), UniProt P24941); assay: NanoBRET assay in MCF-7 cells, CDK2; format: cell-based; conditions: transfected MCF-7 cells, 2 hours, n = 1 or average
How it was run: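 In live MCF-7 cells, compound added followed by NanoBRET TE Tracer K-9 (stock 200 μM) for CDK2, 2 h at 37° C, 5% CO2.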

CDK1:CCNB1 = CDK1:CCNB1 (Homo sapiens (Human), UniProt P06493); assay: NanoBRET assay in MCF-7 cells, CDK1; format: cell-based; conditions: NanoBRET, transfected MCF-7 cells, 2 hours; n = 1 or average; read-out: CDK1 IC50
How it was run: (§1)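 Intracellular target engagement was measured by NanoBRET ratio (460 nm/610 nm) in live MCF-7 cells transiently carrying CDK4:CCND1 (Tracer K-7, 100 μM stock) or CDK1:CCNB1 (Tracer K-9, 400 μM stock).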

CDK4:CCND1 = CDK4:CCND1 (Homo sapiens (Human), UniProt P11802); assay: NanoBRET assay in MCF-7 cells, CDK4; format: cell-based; conditions: NanoBRET, transfected MCF-7 cells, 2 hours; n = 1 or average; read-out: CDK4 IC50
How it was run: as §1

[1] = system: NPM phosphorylation (Thr199, CDK2-cyclin E complex); assay: NPM phosphorylation imaging assay in MCF-7 cells; format: cell-based; conditions: Homo sapiens, 4N DNA cells
How it was run: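 MCF-7 cells were fixed, permeabilised and immunostained, then imaged for phospho-NPM (Thr199), a CDK2-cyclin E site. Analysis was gated on 4N-DNA cells by Hoechst staining. Signals were normalised to controls and fitted for IC50.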

[2] = system: POLR2A Ser2 phosphorylation (CDK9); assay: POLR2A Ser2 phosphorylation imaging assay in MCF-7 cells; format: cell-based; conditions: Homo sapiens, MCF7, 2 h, MCF-7 cells, 2 hours; read-out: POLR2A Ser2 phosphorylation IC50
How it was run: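 MCF-7 cells were fixed, permeabilised and immunostained for POLR2A phospho-Ser2, then imaged by high-content microscopy. Levels were normalised to controls and IC50 values derived.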

MCF-7 cells = assay: Cellular proliferation EdU assay, MCF-7; format: cell-based; conditions: Homo sapiens, MCF7, 48 h, EdU assay, two days; read-out: MCF-7 IC50
How it was run: (§2)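 MCF-7 (800 cells/well) and OVCAR3 (1200 cells/well) in RPMI with 10% FBS exposed to compounds for two days at 37 °C.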

OVCAR3 cells = assay: Cellular proliferation EdU assay, OVCAR3; format: cell-based, human; conditions: Homo sapiens, OVCAR-3, 48 h, EdU assay, two days; read-out: OVCAR3 IC50
How it was run: as §2

[3] = CLint assessment in human liver microsomes (HLM); format: in vitro ADME; conditions: 1 μM
Protocol: After a preincubation with NADPH for 8 minutes, reactions were initiated through the addition of the test compound (final volume 250 μl) and incubated at 37° C. in a water bath for 30 minutes. […] Samples were shaken at 800 rpm for 2 minutes and centrifuged at 4000 rpm for 20 minutes at 4° C. to pellet precipitated protein. The supernatant fraction was diluted 1:5 with deionized water, shaken at 1000 rpm for 2 minutes, and further diluted 1:1 with deionized water. Samples were analyzed by LC-MS/MS. The t1/2 and the CLint of the compounds incubated in the LM, HLM, and HμREL assays as described above were calculated according to the following equations: […] where V (μl/×10^6 cells or mg protein) is the incubation volume (μl) divided by the number of cells (×10^6) or microsomal protein content (mg) in the incubation.

[4] = Aqueous thermodynamic solubility, shake-flask; format: physicochemical; conditions: aqueous phosphate buffer, 25 °C, pH 7.4, aqueous buffer, thermodynamic from solid, phosphate buffer 0.1 M, pH 7.4, 24 hours
How it was run: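 After 24 h stirring at 25° C. in pH 7.4 phosphate buffer (0.1 M), solid-free supernatant from two centrifugations was quantified by UPLC/MS/MS after dilution in water. Compound was added as dried material after DMSO removal.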

Sequence of CDK4:CCND1 (P11802 whole entry): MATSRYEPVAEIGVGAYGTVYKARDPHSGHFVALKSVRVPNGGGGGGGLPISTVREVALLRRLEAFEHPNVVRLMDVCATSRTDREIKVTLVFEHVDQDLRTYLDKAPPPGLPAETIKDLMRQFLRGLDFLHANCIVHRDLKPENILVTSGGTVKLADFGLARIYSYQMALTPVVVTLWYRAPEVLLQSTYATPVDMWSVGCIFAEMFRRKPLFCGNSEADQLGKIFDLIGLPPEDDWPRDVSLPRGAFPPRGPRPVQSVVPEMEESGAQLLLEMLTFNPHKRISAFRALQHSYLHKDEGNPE
Sequence of CDK4:CCND1 (P24385 whole entry partner): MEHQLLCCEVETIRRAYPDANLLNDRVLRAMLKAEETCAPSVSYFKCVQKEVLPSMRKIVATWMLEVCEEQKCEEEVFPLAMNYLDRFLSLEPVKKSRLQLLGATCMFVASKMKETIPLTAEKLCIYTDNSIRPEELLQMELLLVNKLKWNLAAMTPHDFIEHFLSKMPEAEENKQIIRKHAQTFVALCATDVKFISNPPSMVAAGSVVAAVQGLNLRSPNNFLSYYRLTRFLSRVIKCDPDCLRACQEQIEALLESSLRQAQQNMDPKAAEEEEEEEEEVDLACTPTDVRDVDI
Sequence of CDK1:CCNB1 (P06493 whole entry): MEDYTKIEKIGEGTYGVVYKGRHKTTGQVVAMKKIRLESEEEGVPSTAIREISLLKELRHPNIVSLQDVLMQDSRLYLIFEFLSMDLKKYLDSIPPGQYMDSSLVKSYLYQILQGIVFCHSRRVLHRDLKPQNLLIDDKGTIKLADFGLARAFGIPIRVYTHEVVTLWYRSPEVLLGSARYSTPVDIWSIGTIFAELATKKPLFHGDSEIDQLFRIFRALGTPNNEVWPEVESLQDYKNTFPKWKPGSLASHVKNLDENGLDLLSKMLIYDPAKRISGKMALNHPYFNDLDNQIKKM
Sequence of CDK1:CCNB1 (P14635 whole entry partner): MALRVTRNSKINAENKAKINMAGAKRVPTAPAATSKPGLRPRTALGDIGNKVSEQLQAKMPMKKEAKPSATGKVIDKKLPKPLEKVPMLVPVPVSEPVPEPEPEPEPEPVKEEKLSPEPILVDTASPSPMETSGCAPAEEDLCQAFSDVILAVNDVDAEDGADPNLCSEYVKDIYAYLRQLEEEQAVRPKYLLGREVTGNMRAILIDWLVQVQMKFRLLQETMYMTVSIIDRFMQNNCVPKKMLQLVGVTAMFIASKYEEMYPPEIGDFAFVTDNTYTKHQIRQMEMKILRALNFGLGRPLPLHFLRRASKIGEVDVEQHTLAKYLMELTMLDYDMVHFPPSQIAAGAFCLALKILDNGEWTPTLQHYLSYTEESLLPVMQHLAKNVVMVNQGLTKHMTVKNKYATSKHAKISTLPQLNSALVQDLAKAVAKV

| Compound | IC50 (CDK2:CCNE1) [nM] | IC50 (CDK1:CCNB1) [nM] | IC50 (CDK4:CCND1) [nM] | IC50 ([1]; MCF7, 2 h) [nM] | IC50 [2] [nM] | IC50 (MCF-7 cells) [nM] | IC50 (OVCAR3 cells) [nM] | HLM CLint [3] [µL/min/mg] | solubility at 24 h [4] [µM] | IC50 ([1]; MCF7, 2 hours) [nM] |
| --- | --- | --- | --- | --- | --- | --- | --- | --- | --- | --- |
| CC[C@@H](CO)Nc1nc(N[C@H]2CCN(S(=O)(=O)NC)C2)c2ncn(CC)c2n1 [Example 48, (S)-3-((9-ethyl-2-(((S)-1-hydroxybutan-2-yl)amino)-9H-purin-6-yl)-amino)-N-methylpyrrolidine-1-sulfonamide] | 123 | 5550 | > 23800 | 1300 | > 30000 | 3330 | 2350 | 13.3 | > 1000 |  |
| CC(C)n1cnc2c(N[C@H]3CCN(S(C)(=O)=O)C3)nc(NC(CO)C3CCCC3)nc21 (stereo partly drawn) [Example 15, 2-cyclopentyl-2-((9-isopropyl-6-(((S)-1-(methylsulfonyl)pyrrolidin-3-yl)amino)-9H-purin-2-yl)amino)ethan-1-ol] | 22 | 1220 | 2600 | 231 | > 30000 | 918 | 568 | >300 | 132 (≈ 59.6 µg/mL) |  |
| CC(C)[C@H](CO)Nc1nc(N[C@H]2CCN(S(=O)(=O)C3CC3)C2)c2ncn(C(C)C)c2n1 [Example 27, (R)-2-((6-(((S)-1-(cyclopropylsulfonyl)pyrrolidin-3-yl)amino)-9-isopropyl-9H-purin-2-yl)amino)-3-methylbutan-1-ol] | 11 | 1420 | 3400 |  | > 30000 | 839 | 337 | >300 | 39.8 (≈ 18 µg/mL) | 267 |
| CC[C@H](Nc1nc(N[C@@H]2CN(S(=O)(=O)c3ncc[nH]3)C[C@H]2F)c2ncn(C)c2n1)[C@@H](C)O (relative stereo) [Example 56, (2R,3S)-3-((6-(((3R*,4R*)-1-((1H-imidazol-2-yl)sulfonyl)-4-fluoropyrrolidin-3-yl)amino)-9-methyl-9H-purin-2-yl)amino)pentan-2-ol] | 69 | 1500 | 22000 | 299 | 23900 | 1180 | 519 | 39.8 | > 1000 |  |
| CC[C@H](Nc1nc(N[C@H]2CCN(S(=O)(=O)c3cnn(C)c3)C2)c2ncn(C(C)C)c2n1)[C@@H](C)O [Example 31, (2R,3S)-3-((9-isopropyl-6-(((S)-1-((1-methyl-1H-pyrazol-4-yl)sulfonyl)pyrrolidin-3-yl)amino)-9H-purin-2-yl)amino)pentan-2-ol] | 39 | 6290 | > 29700 |  | > 30000 | 3160 | 964 | 154 | > 1000 | 1050 |
| CCNS(=O)(=O)N1C[C@@H](F)[C@H](Nc2nc(N[C@@H](CO)C3CC3)nc3c2ncn3C)C1 (relative stereo) [Example 26, (3R*,4R*)-3-((2-(((R)-1-cyclopropyl-2-hydroxyethyl)amino)-9-methyl-9H-purin-6-yl)amino)-N-ethyl-4-fluoropyrrolidine-1-sulfonamide] | 39 | 651 | 8100 | 435 | 11400 | 960 | 496 | 15.2 | 101 (≈ 44.7 µg/mL) |  |

Continued, in another order:

| IC50 (CDK2:CCNE1) [nM] | IC50 (CDK1:CCNB1) [nM] | IC50 (CDK4:CCND1) [nM] | IC50 ([1]; MCF7, 2 h) [nM] | IC50 [2] [nM] | IC50 (MCF-7 cells) [nM] | IC50 (OVCAR3 cells) [nM] | HLM CLint [3] [µL/min/mg] | solubility at 24 h [4] [µM] | Compound | IC50 ([1]; MCF7, 2 hours) [nM] |
| --- | --- | --- | --- | --- | --- | --- | --- | --- | --- | --- |
| 6 | 98 | 1000 | 41 | 4200 | 111 | 51 | 38 | 320 (≈ 147 µg/mL) | CCNS(=O)(=O)N1CC[C@H](Nc2nc(N[C@@H](CO)C3CC3)nc3c2ncn3C(F)F)C1 [Example 14, (S)-3-((2-(((R)-1-cyclopropyl-2-hydroxyethyl)amino)-9-(difluoromethyl)-9H-purin-6-yl)amino)-N-ethylpyrrolidine-1-sulfonamide] |  |
| 32 | 532 | 1900 | 157 | 7400 | 536 | 324 | 212 | 35 (≈ 16.5 µg/mL) | CCn1cnc2c(N[C@H]3CCN(S(=O)(=O)NC)C3)nc(N[C@@H]3c4ccccc4C[C@@H]3O)nc21 [Example 51, (S)-3-((9-ethyl-2-(((1R,2S)-2-hydroxy-2,3-dihydro-1H-inden-1-yl)amino)-9H-purin-6-yl)amino)-N-methylpyrrolidine-1-sulfonamide] |  |
| 90 | 3700 | > 29700 | 2190 | > 30000 | 2420 | 1380 | 90.5 | 71.2 (≈ 30.2 µg/mL) | CC(C)[C@H](CO)Nc1nc(N[C@H]2CCN(S(C)(=O)=O)C2)c2ncn(C3CC3)c2n1 [Example 29, (R)-2-((9-cyclopropyl-6-(((S)-1-(methylsulfonyl)pyrrolidin-3-yl)amino)-9H-purin-2-yl)amino)-3-methylbutan-1-ol] |  |
| 93 | 1600 | 17200 | 368 | > 30000 | 2520 | 964 | 96.5 | > 1000 | CC(C)n1cnc2c(N[C@H]3CCN(S(C)(=O)=O)C3)nc(NC(CO)C3CCCO3)nc21 (stereo partly drawn) [Example 16, 2-((9-isopropyl-6-(((S)-1-(methylsulfonyl)pyrrolidin-3-yl)amino)-9H-purin-2-yl)amino)-2-(tetrahydrofuran-2-yl)ethan-1-ol] |  |
| 17 | 671 | 1700 | 137 | > 30000 | 874 | 431 | 202 | 51.9 (≈ 23.5 µg/mL) | CCNS(=O)(=O)N1CC[C@H](Nc2nc(N[C@@H](CO)CC3CC3)nc3c2ncn3CC)C1 (relative stereo) [Example 58, (S)-3-((2-(((R*)-1-cyclopropyl-3-hydroxypropan-2-yl)amino)-9-ethyl-9H-purin-6-yl)amino)-N-ethylpyrrolidine-1-sulfonamide] |  |
| 29 | 904 | 17800 | 301 | 15400 | 1360 | 404 | 61.6 | 55 (≈ 25.2 µg/mL) | CCn1cnc2c(N[C@H]3CCN(S(=O)(=O)NC)C3)nc(-c3cccc4c3CC[C@H]4O)nc21 [Example 2, (S)-3-((9-ethyl-2-((R)-1-hydroxy-2,3-dihydro-1H-inden-4-yl)-9H-purin-6-yl)amino)-N-methylpyrrolidine-1-sulfonamide] |  |
| 17 | 236 | 11900 | 551 | 13300 | 2000 | 270 | >300 | 7 (≈ 3.2 µg/mL) | CCn1cnc2c(N[C@H]3CCN(S(=O)(=O)NC)C3)nc(-c3cccc4c3CNC4=O)nc21 [Example 1, (S)-3-((9-ethyl-2-(1-oxoisoindolin-4-yl)-9H-purin-6-yl)amino)-N-methylpyrrolidine-1-sulfonamide] |  |
